Experimental data: US20090197856A1, “ANTIVIRAL COMPOUNDS” (Genelabs Technologies, Inc., priority 2007, published 2009)

molecular target: T1, NS5B (Hepatitis C virus genotype 1b, UniProt Q9WMX2); assay: Polymerase assay, incorporation of radiolabeled GTP with biotinylated oligoG13 primer and polycytidylic acid RNA template; format: biochemical; conditions: polyC RNA template, biotin-oligoG13 primer, tritiated GTP, 3 nM NS5B, 30° C., 2 hours
T1 construct: 3 nM NS5B, 20 nM polyC RNA template
T1 sequence (Q9WMX2 2420-3010): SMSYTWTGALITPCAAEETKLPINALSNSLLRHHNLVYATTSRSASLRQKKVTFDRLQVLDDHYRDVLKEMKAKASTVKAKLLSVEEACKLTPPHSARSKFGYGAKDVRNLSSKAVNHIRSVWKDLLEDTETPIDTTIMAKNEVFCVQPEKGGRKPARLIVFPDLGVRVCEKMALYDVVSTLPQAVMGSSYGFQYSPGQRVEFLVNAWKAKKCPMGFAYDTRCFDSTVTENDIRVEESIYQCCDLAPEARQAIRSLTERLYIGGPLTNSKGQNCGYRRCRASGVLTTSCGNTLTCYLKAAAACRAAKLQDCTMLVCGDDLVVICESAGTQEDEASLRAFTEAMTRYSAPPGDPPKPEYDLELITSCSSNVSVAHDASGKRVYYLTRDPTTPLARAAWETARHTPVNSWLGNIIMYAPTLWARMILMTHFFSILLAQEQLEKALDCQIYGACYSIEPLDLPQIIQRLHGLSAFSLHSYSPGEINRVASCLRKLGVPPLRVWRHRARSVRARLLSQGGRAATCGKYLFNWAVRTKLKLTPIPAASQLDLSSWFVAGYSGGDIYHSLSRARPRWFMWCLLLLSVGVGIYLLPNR

| IC50 | Compound |
| --- | --- |
| 200 nM | CC1(C)C(=O)N2CCn3c(c(C4CCCCC4)c4ccc(C(=O)O)cc43)-c3cccc(c32)[C@@H]1N [Compound 496, (4S)-4-amino-15-cyclohexyl-5,5-dimethyl-6-oxo-5,6,8,9-tetrahydro-4H-indolo[1′,2′:4,5][1,4]diazepino[6,7,1-ij]quinoline-12-carboxylic Acid] |
| 23 nM | CC1(C)CN2CCn3c(c(C4CCCCC4)c4ccc(C(=O)O)cc43)-c3cccc(c32)[C@@H]1N [Compound 497, (4R)-4-amino-15-cyclohexyl-5,5-dimethyl-5,6,8,9-tetrahydro-4H-indolo[1′,2′:4,5][1,4]diazepino[6,7,1-ij]quinoline-12-carboxylic Acid] |
| 20 nM | CC1(C)C(=O)N2CCn3c(c(C4CCCCC4)c4ccc(C(=O)O)cc43)-c3cccc(c32)[C@H]1N [Compound 498] |
| 4 nM | CC1(C)CN2CCn3c(c(C4CCCCC4)c4ccc(C(=O)O)cc43)-c3cccc(c32)[C@H]1N [Compound 499] |
